Values quoted from earlier work, collected in US20090269405A1, “ENZYME MEDIATED DELIVERY SYSTEM” (Appian Labs, LLC, priority 2008, published 2009).
Read-outs that look alike come from different tables or passages of the source.

How the values were obtained:
[1] = chronic oral, 100 mg bid

Structure (SMILES) | patients who developed abdominal aortic aneurysms [1] | onset of musculoskeletal toxicity (severe events) (25 mg daily) [days] | onset of musculoskeletal toxicity (severe events) (75 mg twice daily) [days]
C[C@H]1c2cccc(O)c2C(=O)C2=C(O)[C@]3(O)C(=O)C(C(N)=O)=C(O)[C@@H](N(C)C)[C@@H]3[C@@H](O)[C@@H]21 [doxycycline] | five out of 33 | – | –
CNC(=O)[C@@H](NC(=O)[C@H](CC(C)C)[C@H](O)C(=O)NO)C(C)(C)C [Marimastat] | – | 199 | 56
